# Laboratory results: patent US20240246916A1, “7-NITRO-8-HYDROXYQUINOLINE DERIVATIVES, PREPARATION METHOD THEREFORE AND MEDICAL USE THEREOF” (Jiangsu Yahong Meditech Co., Ltd., priority 2021, published 2024)
# Like-named read-outs stand apart in the source and are kept apart here.
# Columns and labels:
# Assay type in all cases: cell-based
# [1] = test system: Acinetobacter baumannii (carbapenem-resistant clinical isolates; ATCC19606); assay: MIC by micro broth dilution (CLSI), Acinetobacter baumannii; conditions: Acinetobacter baumannii; for MIC50 / MIC90: ATCC19606
# Description: (§1) The test bacteria were one strain of clinically isolated carbapenem-resistant Escherichia coli, two strains of carbapenem-resistant Acinetobacter baumannii, two strains of methicillin-resistant Staphylococcus aureus, two strains of sensitive Staphylococcus aureus, and 7 strains of Klebsiella pneumoniae. Duplicate strains isolated from the same patient were eliminated. There were also […] quality control strains Escherichia coli ATCC25922, Acinetobacter baumannii ATCC19606, Staphylococcus aureus ATCC29213, Klebsiella pneumoniae ATCC BAA-1705, ATCC 43816, ATCC BAA-2472, ATCC-BAA-1898, ATCC-BAA-1899, NCTC 13440 and ATCC-BAA-2470. There were 24 strains in total.
# (§2) According to the recommendations of relevant documents of the American Clinical and Laboratory Standards Institute (CLSI), the micro broth dilution method was used to determine the MIC of the compounds of the present invention against clinically isolated strains. • 3.1 Formulation of antibacterial drug: All the compounds of the present invention were dissolved in DMSO. The drug concentration range was 128 mg/L to 0.06 mg/L. • 3.2 Culture medium: The drug susceptibility test used cation adjusted Mueller-Hinton broth (CAMHB). • 3.3 Amount of inoculum: The test bacteria cultured overnight were adjusted to 0.5 McFarland turbidity by the direct colony suspension method, and diluted 100 folds, the final inoculum amount was 10^5 CFU/mL. • 3.4 Culture conditions: The test bacteria were cultured at 35±2° C. for 20 hours in air.
# (§3) The drug susceptibility test results were interpretated by reference to CLSI 2019 M100 29th edition criteria.
# (§4) The quality control strains of the drug susceptibility test were Escherichia coli ATCC 25922, Acinetobacter baumannii ATCC 19606, Staphylococcus aureus ATCC 29213, Klebsiella pneumoniae ATCC BAA-1705, ATCC 43816, ATCC BAA-2472, ATCC-BAA-1898, ATCC-BAA-1899, NCTC 13440 and ATCC-BAA-2470.
# (§5) The results of drug susceptibility test were statistically analyzed by WHONET software (version 5.6).
# [2] = test system: Staphylococcus aureus (methicillin-resistant and sensitive clinical isolates; ATCC29213); assay: MIC by micro broth dilution (CLSI), Staphylococcus aureus
# Description: as §1, §2, §3, §4, §5
# [3] = test system: Escherichia coli (carbapenem-resistant clinical isolate; ATCC25922); assay: MIC by micro broth dilution (CLSI), Escherichia coli; conditions: Escherichia coli
# Description: as §1, §2, §3, §4, §5
# [4] = Clinical strain, read-out: MIC50
# [5] = Clinical strain, read-out: MIC90
# [6] = Standard strain ATCC19606, read-out: MIC
# [7] = Standard strain ATCC29213, read-out: MIC
# [8] = ATCC25922, Clinical strain, read-out: MIC50
# [9] = ATCC25922, Clinical strain, read-out: MIC90
# [10] = Standard strain ATCC25922, read-out: MIC
Structure (SMILES),"MIC50 [1, 4]","MIC90 [1, 5]","MIC [1, 6]","MIC50 [2, 4]","MIC90 [2, 5]","MIC [2, 7]","MIC50 [3, 8]","MIC90 [3, 9]","MIC [3, 10]","MIC50 ([1]; clinical strains, micro broth dilution, CAMHB, 35±2° C., 20 hours, read-out: MIC50 Acinetobacter baumannii Clinical strain)","MIC90 ([1]; clinical strains, micro broth dilution, CAMHB, 35±2° C., 20 hours, read-out: MIC90 Acinetobacter baumannii Clinical strain)","MIC ([1]; standard strain ATCC19606, micro broth dilution, CAMHB, 35±2° C., 20 hours, read-out: MIC Acinetobacter baumannii Standard strain ATCC19606)","MIC50 ([2]; clinical strains, micro broth dilution, CAMHB, 35±2° C., 20 hours, read-out: MIC50 Staphylococcus aureus Clinical strain)","MIC90 ([2]; clinical strains, micro broth dilution, CAMHB, 35±2° C., 20 hours, read-out: MIC90 Staphylococcus aureus Clinical strain)","MIC ([2]; standard strain ATCC29213, micro broth dilution, CAMHB, 35±2° C., 20 hours, read-out: MIC Staphylococcus aureus Standard strain ATCC29213)","MIC50 ([3]; clinical strains, micro broth dilution, CAMHB, 35±2° C., 20 hours, read-out: MIC50 Escherichia coli Clinical strain)","MIC90 ([3]; clinical strains, micro broth dilution, CAMHB, 35±2° C., 20 hours, read-out: MIC90 Escherichia coli Clinical strain)","MIC ([3]; standard strain ATCC25922, micro broth dilution, CAMHB, 35±2° C., 20 hours, read-out: MIC Escherichia coli Standard strain ATCC25922)"
"O=[N+]([O-])c1ccc2c(Cl)c(-c3ccccc3)cnc2c1O [Example 82, 4-chloro-7-nitro-3-phenylquinolin-8-ol]",> 128 mg/L,> 128 mg/L,128 mg/L,1 mg/L,1 mg/L,1 mg/L,> 128 mg/L,> 128 mg/L,> 128 mg/L,,,,,,,,,
"O=C(O)C(F)(F)F.O=[N+]([O-])c1cc(C(F)F)c2cccnc2c1O [Example 108, 5-(difluoromethyl)-7-nitroquinolin-8-ol trifluoroacetate]",,,,> 128 mg/L,> 128 mg/L,128 mg/L,> 128 mg/L,> 128 mg/L,> 128 mg/L,,,,,,,,,
"O=[N+]([O-])c1ccc2c(CN3CCCCC3)ccnc2c1O [Example 85, 7-nitro-4-(piperidin-1-yl-methyl)quinolin-8-ol]",32 mg/L,64 mg/L,32 mg/L,16 mg/L,64 mg/L,64 mg/L,64 mg/L,64 mg/L,64 mg/L,,,,,,,,,
"O=[N+]([O-])c1cc(CN2CCOCC2)c2cccnc2c1O [Example 87, 5-(morpholinomethyl)-7-nitroquinolin-8-ol acetate]",> 128 mg/L,> 128 mg/L,128 mg/L,128 mg/L,> 128 mg/L,128 mg/L,> 128 mg/L,> 128 mg/L,128 mg/L,,,,,,,,,
"O=[N+]([O-])c1cc(Cl)c2c(N3CCCC(F)C3)ccnc2c1O (stereo not drawn) [Example 119, 5-chloro-4-(3-fluoropiperidin-1-yl)-7-nitroquinolin-8-ol]",128 mg/L,> 128 mg/L,> 128 mg/L,16 mg/L,128 mg/L,128 mg/L,> 128 mg/L,> 128 mg/L,> 128 mg/L,,,,,,,,,
"O=[N+]([O-])c1ccc2cc(CN3CCOCC3)cnc2c1O [Example 97, 3-(morpholinomethyl)-7-nitroquinolin-8-ol]",128 mg/L,> 128 mg/L,128 mg/L,128 mg/L,128 mg/L,128 mg/L,> 128 mg/L,> 128 mg/L,> 128 mg/L,,,,,,,,,
"O=[N+]([O-])c1cc(Cl)c2cc(CN3CCOCC3)cnc2c1O [Example 96, 5-chloro-3-(morpholinomethyl)-7-nitroquinolin-8-ol]",> 128 mg/L,> 128 mg/L,> 128 mg/L,32 mg/L,64 mg/L,32 mg/L,> 128 mg/L,> 128 mg/L,> 128 mg/L,,,,,,,,,
"CCNCc1cc([N+](=O)[O-])c(O)c2ncccc12.Cl.Cl [Example 103, 5-((ethylamino)methyl)-7-nitroquinolin-8-ol dihydrochloride]",> 128 mg/L,> 128 mg/L,> 128 mg/L,> 128 mg/L,> 128 mg/L,> 128 mg/L,> 128 mg/L,> 128 mg/L,> 128 mg/L,,,,,,,,,
"O=[N+]([O-])c1c(Cl)c(F)c2cccnc2c1O [Example 123, 6-chloro-5-fluoro-7-nitroquinolin-8-ol]",,,,,,,,,,4 mg/L,8 mg/L,4 mg/L,2 mg/L,4 mg/L,4 mg/L,16 mg/L,32 mg/L,8 mg/L
"O=[N+]([O-])c1c(Cl)c(Cl)c2cccnc2c1O [Example 115, 5,6-dichloro-7-nitroquinolin-8-ol]",4 mg/L,4 mg/L,4 mg/L,1 mg/L,1 mg/L,2 mg/L,64 mg/L,64 mg/L,16 mg/L,,,,,,,,,
